Assay results from patent US8247211B2, “Glycopeptide antibiotics” (American Cyanamid Company, priority 2001, dated 2012).
Values after ≈ are worked out from the molar mass of the structure shown.

Assays:
[1] = Anatomic pathology (heart and kidney histopathology) in mice; format: in vivo, CD-1 mice; conditions: 20 mg/kg intravenously daily for 9 days, microscopic histopathology on day 10
Method in brief: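 Histopathology on H&E-stained, paraffin-embedded sections, subjectively scored (slight, mild, moderate, marked, severe) relative to untreated controls. Dosing: glycopeptide antibiotics 20 mg/kg intravenously once daily ×9 days in 20-day-old CD-1 mice, n=5 per group including vehicle.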

[2] = tested on: Streptococcus pneumoniae (GC 1894), penicillin resistant strain; test: Acute lethal infection in mice (ED50); format: in vivo; conditions: female CD-1 mice, intraperitoneal challenge, intravenous dose 30 min. after infection, 7 day survival ratios
Method in brief: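 IP bacterial challenge, female CD-1 mice; inoculum lethal to untreated controls in 24-48 hr. IV dosing in saline or 5% dextrose 30 min post-infection, 5 mice/dose. ED50 from 7-day survival, 3 tests pooled.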

[3] = tested on: Staphylococcus sp.; test: In vitro antibacterial evaluation: minimum inhibitory concentration (MIC), broth dilution method; format: cell-based; conditions: for MIC Staphylococcus aureus (ATCC 29213): strain ATCC 29213; for MIC Staphylococcus aureus (GC 1131): strain GC 1131; for MIC Staphylococcus aureus (GC 3051): strain GC 3051; for MIC Staphylococcus aureus (GC 3053): strain GC 3053; for MIC Staphylococcus aureus (GC 4541): strain GC 4541; for MIC Staphylococcus aureus (GC 4545): strain GC 4545; for MIC Staphylococcus haemolyticus (GC 4546): strain GC 4546; for MIC Coagulase Negative Staphylococcus (GC 4547): strain GC 4547; for MIC Coagulase Negative Staphylococcus (GC 6257): strain GC 6257
Method in brief: (§1)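 NCCLS M7-A2 broth dilution with Mueller-Hinton II, testing 64-0.06 μg/mL antibiotic against 5×10^5 CFU/mL inocula. Test strains include recent methicillin-, penicillin- or vancomycin-resistant clinical isolates. MIC is the lowest concentration preventing growth.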

[4] = tested on: Enterococcus sp.; test: as above; format: cell-based; conditions: broth dilution, 18 hours at 35° C.
Method in brief: as §1

[5] = tested on: Escherichia coli; test: as above; format: cell-based; conditions: 5×10^5 CFU/mL, 18 hours at 35° C.
Method in brief: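 Using Muller-Hinton II […] and an inoculum of 5×10^5 CFU/mL, antibiotic dilutions from 64 down to 0.06 μg/mL were tested following NCCLS M7-A2. The MIC is the lowest concentration inhibiting growth, including in methicillin-, penicillin- or vancomycin-resistant clinical isolates.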

[6] = tested on: Streptococcus sp.; test: as above; format: cell-based; conditions: broth dilution, 18 hours at 35° C.
Method in brief: as §1

[7] = broth dilution, 18 hours at 35° C.

## N=C1NCC(C(O)C2NC(=O)C(Cc3ccc(OC4OC(CO)C(OC5OC6COC7(OC6C(O)C5O)C5CC6CC(C5)CC7C6)C(O)C4O)cc3)NC(=O)C(CC3CCCCC3)NC(=O)CNC(=O)C(CO)NC(=O)C(C(O)C3CNC(=N)N3C3OC(CO)C(O)C(O)C3O)NC2=O)N1 (stereo not drawn) [Example 106, Cyclo[3-cyclohexylalanyl-O-[4-O-[4,6-O-(2-adamantylidene)hexopyranosyl]hexopyranosyl]-tyrosyl-3-(2-iminoimidazolidin-4-yl)seryl-3-(3-hexopyranosyl-2-iminoimidazolidin-4-yl)-serylserylglycyl]]
[1]
  Anatomical Pathology (Day 10), Heart: 0
[2]
  median effective dose (ED50), Streptococcus pneumoniae (GC 1894): 0.07 mg/kg
[3]
  MIC Staphylococcus aureus (ATCC 29213): 0.5 to 2 µg/mL
  MIC Staphylococcus aureus (GC 1131): 0.5 to 2 µg/mL
  MIC Staphylococcus aureus (GC 3051): 0.5 to 2 µg/mL
  MIC Staphylococcus aureus (GC 3053): 0.5 to 2 µg/mL
  MIC Staphylococcus aureus (GC 4541): 0.5 to 2 µg/mL
  MIC Staphylococcus aureus (GC 4545): 0.5 to 2 µg/mL
  MIC Staphylococcus haemolyticus (GC 4546): 0.5 to 1 µg/mL
  MIC Coagulase Negative Staphylococcus (GC 4547): 0.5 to 2 µg/mL
  MIC Coagulase Negative Staphylococcus (GC 6257): 0.25 µg/mL (≈ 0.176 µM)
[3]; [7]
  MIC Staphylococcus aureus (ATCC 29213): 0.5 to 2 µg/mL
  MIC Staphylococcus aureus (GC 1131): 0.5 to 2 µg/mL
  MIC Staphylococcus aureus (GC 3051): 0.5 to 2 µg/mL
  MIC Staphylococcus aureus (GC 3053): 0.5 to 2 µg/mL
  MIC Staphylococcus aureus (GC 4541): 0.5 to 2 µg/mL
  MIC Staphylococcus aureus (GC 4545): 0.5 to 2 µg/mL
  MIC Staphylococcus haemolyticus (GC 4546): 0.5 to 1 µg/mL
  MIC Coagulase Negative Staphylococcus (GC 4547): 0.5 to 2 µg/mL
  MIC Coagulase Negative Staphylococcus (GC 6257): 0.25 µg/mL (≈ 0.176 µM)
[4]; Enterococcus avium (GC 4558)
  MIC Enterococcus avium (GC 4558): 1 to 2 µg/mL
[4]; Enterococcus faecalis (ATCC 29212)
  MIC Enterococcus faecalis (ATCC 29212): 0.5 to 2 µg/mL
[4]; Enterococcus faecalis (GC 2242)
  MIC Enterococcus faecalis (GC 2242): 0.5 to 2 µg/mL
[4]; Enterococcus faecalis (GC 2691)
  MIC Enterococcus faecalis (GC 2691): 1 to 2 µg/mL
[4]; Enterococcus faecalis (GC 3059)
  MIC Enterococcus faecalis (GC 3059): 1 to 2 µg/mL
[4]; Enterococcus faecalis (GC 4552)
  MIC Enterococcus faecalis (GC 4552): 1 to 2 µg/mL
[4]; Enterococcus faecalis (GC 4553)
  MIC Enterococcus faecalis (GC 4553): 1 to 2 µg/mL
[4]; Enterococcus faecalis (GC 4554)
  MIC Enterococcus faecalis (GC 4554): 1 to 2 µg/mL
[4]; Enterococcus faecalis (GC 6189)
  MIC Enterococcus faecalis (GC 6189): 1 to 2 µg/mL
[4]; Enterococcus faecium (GC 2243)
  MIC Enterococcus faecium (GC 2243): 0.5 to 2 µg/mL
[4]; Enterococcus faecium (GC 4556)
  MIC Enterococcus faecium (GC 4556): 0.5 to 2 µg/mL
[4]; Enterococcus faecium (GC 4557)
  MIC Enterococcus faecium (GC 4557): 0.5 to 2 µg/mL
[4]; 5×10^5 CFU/mL
  MIC Enterococccus avium (GC 4558): 1 to 2 µg/mL
  MIC Enterococccus faecalis (ATCC 29212): 0.5 to 2 µg/mL
  MIC Enterococccus faecalis (GC 2691): 1 to 2 µg/mL
  MIC Enterococccus faecalis (GC 3059): 1 to 2 µg/mL
  MIC Enterococccus faecalis (GC 4552): 1 to 2 µg/mL
  MIC Enterococccus faecalis (GC 4553): 1 to 2 µg/mL
  MIC Enterococccus faecalis (GC 4554): 1 to 2 µg/mL
  MIC Enterococccus faecalis (GC 6189): 1 to 2 µg/mL
  MIC Enterococccus faecium (GC 2243): 0.5 to 2 µg/mL
  MIC Enterococccus faecium (GC 4556): 0.5 to 2 µg/mL
  MIC Enterococccus faecium (GC 4557): 0.5 to 2 µg/mL
  MIC Enterococcus faecalis (GC 2242): 0.5 to 2 µg/mL
[5]
  MIC Escherichia coli (ATCC 25922): 32 to 64 µg/mL
  MIC Escherichia coli (GC 4559): 32 to 64 µg/mL
  MIC Escherichia coli (GC 4560): 0.5 to 2 µg/mL
[6]; Streptococcus agalactiae (GC 4564)
  MIC Streptococcus agalactiae (GC 4564): <0.03 µg/mL
[6]; Streptococcus pneumoniae (ATCC 6301)
  MIC Streptococcus pneumoniae (ATCC 6301): <0.03 µg/mL
[6]; Streptococcus pneumoniae (GC 1894)
  MIC Streptococcus pneumoniae (GC 1894): <0.03 µg/mL
[6]; Streptococcus pneumoniae (GC 4565)
  MIC Streptococcus pneumoniae (GC 4565): <0.03 µg/mL
[6]; Streptococcus pyogenes (GC 4563)
  MIC Streptococcus pyogenes (GC 4563): <0.03 µg/mL
[6]; 5×10^5 CFU/mL
  MIC Streptococcus agalactiae (GC 4564): <0.03 µg/mL
  MIC Streptococcus pneumoniae (GC 1894): <0.03 µg/mL
  MIC Streptococcus pneumoniae (GC 4565): <0.03 µg/mL
  MIC Streptococcus pneumonine (ATCC 6301): <0.03 µg/mL
  MIC Streptococcus pyogenes (GC 4563): <0.03 µg/mL
